Laboratory results reported in ChEMBL document CHEMBL1147242, “Briarlides, briarane diterpenes from a gorgonian Briareum sp” (J Nat Prod, 2003).
Values after ≈ are worked out from the molar mass of the structure shown.

Experiments:
[1] = Cytotoxicity against MDCK cells; format: cell-based, Canis lupus familiaris; conditions: dog
[2] = Cytotoxicity against african green monkey Vero cells; format: cell-based; conditions: chlorocebus sabaeus

CC(=O)O[C@@H]1[C@@H](OC(C)=O)/C(C)=C\[C@@H]2OC(=O)[C@]3(C)O[C@]23[C@H](OC(C)=O)[C@H]2[C@](C)(O)[C@H](OC(C)=O)C=C[C@]2(C)[C@H]1OC(C)=O [BRIARLIDE A]
CC50 [1]: 4.74 µg/mL (≈ 7.61 µM)
CC50 [2]: 2.07 µg/mL (≈ 3.32 µM)

CC(=O)O[C@@H]1[C@H]2[C@](C)(O)[C@H](OC(C)=O)C=C[C@]2(C)[C@@H](OC(C)=O)[C@H](OC(C)=O)C/C(C)=C\[C@@H]2OC(=O)[C@]3(C)O[C@@]213 [BRIARLIDE G]
CC50 [1]: 67.1 µg/mL (≈ 119 µM)
CC50 [2]: 22.2 µg/mL (≈ 39.3 µM)

CCCCCCCC(=O)O[C@H]1/C(C)=C\[C@@H]2OC(=O)[C@]3(C)O[C@]23[C@H](OC(C)=O)[C@H]2[C@](C)(O)[C@H](OC(C)=O)C=C[C@]2(C)[C@@H](OC(C)=O)[C@@H]1O [BRIARLIDE D]
CC50 [1]: 2.49 µg/mL (≈ 3.75 µM)
CC50 [2]: 2.26 µg/mL (≈ 3.4 µM)

CCCCCC(=O)O[C@H]1/C(C)=C\[C@@H]2OC(=O)[C@]3(C)O[C@]23[C@H](OC(C)=O)[C@H]2[C@](C)(O)[C@H](OC(C)=O)C=C[C@]2(C)[C@@H](OC(C)=O)[C@@H]1O [BRIARLIDE E]
CC50 [1]: 4.91 µg/mL (≈ 7.71 µM)
CC50 [2]: 4.24 µg/mL (≈ 6.66 µM)

CC(=O)O[C@@H]1[C@H]2[C@](C)(O)[C@H](O)C=C[C@]2(C)[C@@H](O)[C@H](OC(C)=O)C/C(C)=C\[C@@H]2OC(=O)[C@]3(C)O[C@@]213 [BRIARLIDE H]
CC50 [1]: > 100 µg/mL
CC50 [2]: > 100 µg/mL

CC(=O)O[C@@H]1[C@H]2[C@](C)(O)[C@H](OC(C)=O)C=C[C@]2(C)[C@@H](OC(C)=O)[C@H](O)[C@@H](OC(C)=O)/C(C)=C\[C@@H]2OC(=O)[C@]3(C)O[C@@]213 [BRIARLIDE B]
CC50 [1]: 15.4 µg/mL (≈ 26.5 µM)
CC50 [2]: 18.9 µg/mL (≈ 32.6 µM)

CC(=O)O[C@@H]1[C@H]2[C@](C)(O)[C@H](OC(C)=O)C=C[C@]2(C)[C@@H](O)[C@H](O)[C@@H](OC(C)=O)/C(C)=C\[C@@H]2OC(=O)[C@]3(C)O[C@@]213 [BRIARLIDE C]
CC50 [1]: 38.6 µg/mL (≈ 71.7 µM)
CC50 [2]: 62.1 µg/mL (≈ 115 µM)

CC(=O)O[C@@H]1[C@@H](OC(C)=O)/C(C)=C\[C@@H]2OC(=O)[C@]3(C)O[C@]23[C@H](OC(C)=O)[C@H]2[C@](C)(O)[C@H](O)C=C[C@]2(C)[C@H]1OC(C)=O [VIOLIDE B]
CC50 [1]: 28.8 µg/mL (≈ 49.6 µM)
CC50 [2]: 9.8 µg/mL (≈ 16.9 µM)

CCCCCCCC(=O)O[C@@H]1[C@@H](O)/C(C)=C\[C@@H]2OC(=O)[C@]3(C)O[C@]23[C@H](OC(C)=O)[C@H]2[C@](C)(O)[C@H](OC(C)=O)C=C[C@]2(C)[C@H]1OC(C)=O [BRIARLIDE F]
CC50 [1]: 3.49 µg/mL (≈ 5.25 µM)
CC50 [2]: 4.26 µg/mL (≈ 6.41 µM)
